Assay results from ChEMBL document CHEMBL5726115, “Triazolo compounds” (2017).

Biological target: cAMP and cAMP-inhibited cGMP 3',5'-cyclic phosphodiesterase 10A (Homo sapiens, UniProt Q9Y233)
Assay: Inhibition Assay: The human PDE10A full length assay was performed in 96-well micro titer plates. The reaction mixture of 50 μl contained 20 mM HEPES pH=7.5/10 mM MgCl2/0.05 mg/ml BSA (Sigma cat. #A-7906), 50 nM cGMP (Sigma, cat. #G6129) and 50 nM [3H]-cGMP (GE Healthcare, cat. #TRK392 S.A. 13.2 Ci/mmol), 3.75 ng/well PDE10A enzyme (Enzo Life Science, Lausen, Switzerland cat #SE-534) with or without a specific test compound. A range of concentrations of the potential inhibitor was used to generate data for calculating the concentration of inhibitor resulting in 50% of the effect (e.g. IC50, the concentration of the competitor inhibiting PDE10A activity by 50%). Non-specific activity was tested without the enzyme. The reaction was initiated by the addition of the substrate solution (cGMP and [3H]-cGMP) and allowed to progress for 20 minutes at room temperature. The reaction was terminated by adding 25 μl of YSi-SPA scintillation beads (GE Healthcare, cat. #RPNQ0150) in 18 mM zinc sulphate solution (stop reagent). After 1 h under shaking, the plate was centrifuged one minute at 170 g to allow beads to settle. Afterwards, radioactive counts were measured on a Perkin Elmer TopCount Scintillation plate reader.

cAMP and cAMP-inhibited cGMP 3',5'-cyclic phosphodiesterase 10A, sequence (Q9Y233 whole entry): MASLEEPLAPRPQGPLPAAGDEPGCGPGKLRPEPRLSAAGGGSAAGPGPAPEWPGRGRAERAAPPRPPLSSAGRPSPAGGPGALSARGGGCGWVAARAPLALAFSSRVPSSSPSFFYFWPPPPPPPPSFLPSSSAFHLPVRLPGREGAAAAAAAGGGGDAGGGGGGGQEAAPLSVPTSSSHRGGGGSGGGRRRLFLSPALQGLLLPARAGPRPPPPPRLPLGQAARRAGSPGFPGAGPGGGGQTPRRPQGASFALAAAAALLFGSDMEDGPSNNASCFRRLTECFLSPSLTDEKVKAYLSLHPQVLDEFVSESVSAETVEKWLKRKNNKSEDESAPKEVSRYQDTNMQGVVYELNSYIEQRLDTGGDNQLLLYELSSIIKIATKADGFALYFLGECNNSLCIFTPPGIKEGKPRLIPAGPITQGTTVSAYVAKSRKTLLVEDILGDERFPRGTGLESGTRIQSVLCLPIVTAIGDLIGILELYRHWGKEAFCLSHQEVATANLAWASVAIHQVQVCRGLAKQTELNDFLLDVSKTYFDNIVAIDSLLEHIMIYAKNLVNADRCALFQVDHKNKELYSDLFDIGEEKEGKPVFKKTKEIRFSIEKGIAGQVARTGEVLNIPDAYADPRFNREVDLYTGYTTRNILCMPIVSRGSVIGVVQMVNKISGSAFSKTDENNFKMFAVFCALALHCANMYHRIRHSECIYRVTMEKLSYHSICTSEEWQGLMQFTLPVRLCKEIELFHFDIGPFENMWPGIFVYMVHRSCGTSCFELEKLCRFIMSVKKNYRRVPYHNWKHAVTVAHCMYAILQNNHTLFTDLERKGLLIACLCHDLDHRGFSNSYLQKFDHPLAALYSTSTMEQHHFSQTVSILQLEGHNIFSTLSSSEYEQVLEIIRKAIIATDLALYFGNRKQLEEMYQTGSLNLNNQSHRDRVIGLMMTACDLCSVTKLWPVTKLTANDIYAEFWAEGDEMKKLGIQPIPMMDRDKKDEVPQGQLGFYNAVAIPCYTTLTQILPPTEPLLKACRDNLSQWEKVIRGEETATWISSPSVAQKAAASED

IC50	Structure (SMILES)
165 nM	Cc1nc2cc(C(F)(F)F)c(CCc3nc(N4CCCC4)nn3C)nn2c1C
6.6 nM	Cc1cn2nc(C)c(C)c2nc1C#Cc1nc(N2CCCC2)nn1C
